Reference: ChEMBL document CHEMBL3885881, “DrugMatrix”

Organism: Rattus norvegicus
Test: DrugMatrix - Regimen: Daily Repeat
Format: toxicity, organism-based, Sprague-Dawley
Parameters: regimen Daily Repeat, gender Male, age 6-8 weeks
Conditions: in vivo, po, route oral GAVAGE, vehicle .5 % CMC; for BASOPHIL / EOSINOPHIL / ERYTHROCYTE COUNT / HEMATOCRIT / HEMOGLOBIN / LEUKOCYTE COUNT / LYMPHOCYTE / MEAN CORPUSCULAR HEMOGLOBIN / MEAN CORPUSCULAR HEMOGLOBIN CONCENTRATION / MEAN CORPUSCULAR VOLUME / MONOCYTE / NEUTROPHIL / PLATELET COUNT: tissue Blood; for ALANINE AMINOTRANSFERASE / ALBUMIN / ALKALINE PHOSPHATASE / ASPARTATE AMINOTRANSFERASE / BLOOD UREA NITROGEN / CHLORIDE / CHOLESTEROL / CREATINE PHOSPHOKINASE / CREATININE / GLUCOSE / PHOSPHORUS / POTASSIUM / SODIUM / TOTAL BILIRUBIN / TOTAL PROTEIN: tissue Plasma
[1] = 0 mg/kg, 72 h, dose level Control, time 3 day
[2] = 0 mg/kg, 120 h, dose level Control, time 5 day
[3] = 25 mg/kg, 72 h, dose level Low, time 3 day
[4] = 25 mg/kg, 120 h, dose level Low, time 5 day

## C=C(CC)C(=O)c1ccc(OCC(=O)O)c(Cl)c1Cl [ETHACRYNIC ACID]
[1]
  BASOPHIL: 0%
  EOSINOPHIL: 0%
  ERYTHROCYTE COUNT: 6.19 x10E6/uL
  HEMATOCRIT: 36.94%
  HEMOGLOBIN: 14.58 G/DL
  LEUKOCYTE COUNT: 11.54 x10E3/uL
  LYMPHOCYTE: 84.8%
  MEAN CORPUSCULAR HEMOGLOBIN: 23.58 pg
  MEAN CORPUSCULAR HEMOGLOBIN CONCENTRATION: 39.44 G/DL
  MEAN CORPUSCULAR VOLUME: 59.76 fL
  MONOCYTE: 1.4%
  NEUTROPHIL: 13.8%
  PLATELET COUNT: 1068.8 x10E3/uL
  ALANINE AMINOTRANSFERASE: 38.17 u/L
  ALBUMIN: 3.88 G/DL
  ALKALINE PHOSPHATASE: 391.33 u/L
  ASPARTATE AMINOTRANSFERASE: 69.83 u/L
  BLOOD UREA NITROGEN: 15 mg/dL
  CHLORIDE: 104.17 MEQ/L
  CHOLESTEROL: 72.17 mg/dL
  CREATINE PHOSPHOKINASE: 174.33 u/L
  CREATININE: 0.58 mg/dL
  GLUCOSE: 192.67 mg/dL
  PHOSPHORUS: 10.52 mg/dL
  POTASSIUM: 6.8 MEQ/L
  SODIUM: 149.67 MEQ/L
  TOTAL BILIRUBIN: 0.78 mg/dL
  TOTAL PROTEIN: 6.28 G/DL
[2]
  BASOPHIL: 0%
  EOSINOPHIL: 0.17%
  ERYTHROCYTE COUNT: 6.72 x10E6/uL
  HEMATOCRIT: 40.02%
  HEMOGLOBIN: 15.83 G/DL
  LEUKOCYTE COUNT: 9.5 x10E3/uL
  LYMPHOCYTE: 87.17%
  MEAN CORPUSCULAR HEMOGLOBIN: 23.57 pg
  MEAN CORPUSCULAR HEMOGLOBIN CONCENTRATION: 39.62 G/DL
  MEAN CORPUSCULAR VOLUME: 59.55 fL
  MONOCYTE: 1.67%
  NEUTROPHIL: 11%
  PLATELET COUNT: 1053.67 x10E3/uL
  ALANINE AMINOTRANSFERASE: 26.33 u/L
  ALBUMIN: 4.02 G/DL
  ALKALINE PHOSPHATASE: 316.67 u/L
  ASPARTATE AMINOTRANSFERASE: 61.33 u/L
  BLOOD UREA NITROGEN: 18.67 mg/dL
  CHLORIDE: 108 MEQ/L
  CHOLESTEROL: 65.17 mg/dL
  CREATINE PHOSPHOKINASE: 161.17 u/L
  CREATININE: 0.75 mg/dL
  GLUCOSE: 177.33 mg/dL
  PHOSPHORUS: 9.72 mg/dL
  POTASSIUM: 6.18 MEQ/L
  SODIUM: 150.5 MEQ/L
  TOTAL BILIRUBIN: 0.68 mg/dL
  TOTAL PROTEIN: 6.55 G/DL
[3]
  BASOPHIL: 0%
  EOSINOPHIL: 0%
  ERYTHROCYTE COUNT: 5.63 x10E6/uL
  HEMATOCRIT: 33.93%
  HEMOGLOBIN: 13.5 G/DL
  LEUKOCYTE COUNT: 12.83 x10E3/uL
  LYMPHOCYTE: 81%
  MEAN CORPUSCULAR HEMOGLOBIN: 23.97 pg
  MEAN CORPUSCULAR HEMOGLOBIN CONCENTRATION: 39.8 G/DL
  MEAN CORPUSCULAR VOLUME: 60.23 fL
  MONOCYTE: 2.67%
  NEUTROPHIL: 16.33%
  PLATELET COUNT: 1220 x10E3/uL
  ALANINE AMINOTRANSFERASE: 34.67 u/L
  ALBUMIN: 3.8 G/DL
  ALKALINE PHOSPHATASE: 289.67 u/L
  ASPARTATE AMINOTRANSFERASE: 61.67 u/L
  BLOOD UREA NITROGEN: 16.33 mg/dL
  CHLORIDE: 102.67 MEQ/L
  CHOLESTEROL: 78 mg/dL
  CREATINE PHOSPHOKINASE: 150.67 u/L
  CREATININE: 0.67 mg/dL
  GLUCOSE: 178 mg/dL
  PHOSPHORUS: 11.3 mg/dL
  POTASSIUM: 6.67 MEQ/L
  SODIUM: 148 MEQ/L
  TOTAL BILIRUBIN: 0.5 mg/dL
  TOTAL PROTEIN: 6.23 G/DL
[4]
  BASOPHIL: 0%
  EOSINOPHIL: 0%
  ERYTHROCYTE COUNT: 6.67 x10E6/uL
  HEMATOCRIT: 39.93%
  HEMOGLOBIN: 15.7 G/DL
  LEUKOCYTE COUNT: 13.37 x10E3/uL
  LYMPHOCYTE: 91.33%
  MEAN CORPUSCULAR HEMOGLOBIN: 23.6 pg
  MEAN CORPUSCULAR HEMOGLOBIN CONCENTRATION: 39.37 G/DL
  MEAN CORPUSCULAR VOLUME: 59.9 fL
  MONOCYTE: 2.33%
  NEUTROPHIL: 6.33%
  PLATELET COUNT: 1183.33 x10E3/uL
  ALANINE AMINOTRANSFERASE: 25 u/L
  ALBUMIN: 4.03 G/DL
  ALKALINE PHOSPHATASE: 323.33 u/L
  ASPARTATE AMINOTRANSFERASE: 56.67 u/L
  BLOOD UREA NITROGEN: 14.33 mg/dL
  CHLORIDE: 104.33 MEQ/L
  CHOLESTEROL: 77.33 mg/dL
  CREATINE PHOSPHOKINASE: 160 u/L
  CREATININE: 0.6 mg/dL
  GLUCOSE: 169 mg/dL
  PHOSPHORUS: 10.6 mg/dL
  POTASSIUM: 6.23 MEQ/L
  SODIUM: 151 MEQ/L
  TOTAL BILIRUBIN: 0.6 mg/dL
  TOTAL PROTEIN: 6.77 G/DL
